Reference: patent US9765115B2, “Inhibitors of metastasis, methods of generating such inhibitors and their therapeutic applications” (Board of Supervisors of Louisiana State University acting …, priority 2011, dated 2017)
Changes are numbered by the printed parent chain. Entries after “also recorded” stand apart in the source; their conditions may differ.

Assays:
[1] = system: UMUC3, RT4, A2780, OVCAR8 and A549 cancer cell lines; test: Transepithelial electric resistance (TER) in other cancer cell lines; type: cell-based, human
Procedure: Cells were plated on Transwell filters (0.4 μm pore size) and grown to confluency in complete medium (RPMI1640 containing 10% fetal bovine serum, 20 mM HEPES and antibiotics). TER of the cultures (in duplicate wells) was measured at several time intervals with EVOM volt-ohm meter as previously described (Shah et al, 2009). The readings were corrected for blank (TER values from the filter in bathing medium). The integrity and cell density of monolayers were carefully monitored.
Next, whether CTR destabilizes tight junctions and increases invasion in these cancers was tested by examining the effect of CT on transepithelial electric resistance (TER), paracellular permeability (PCP) and invasion in cancer cell lines derived from bladder cancer (UMUC3 and RT4), ovarian cancer (A2780 and OVCAR8), and lung cancer (A549). Prostate cancer cell line PC-3CTR was used a reference line. […] This was further confirmed by the actions of CT on PCP (FIG. 26A) and cell invasion (FIG. 26B). […] The role of CT-CTR axis is to destabilize junction complexes and increase invasion in cancers as diverse as prostate, bladder, lung and ovarian cancers.

CTR-ZO-1 interaction [2] = biological target: T1, CTR-ZO-1 interaction (Homo sapiens, UniProt P30988); test: CTR-ZO-1 co-immunoprecipitation; type: cell-based; settings: for co-precipitation of ZO-1 by CTRwt: 3 min, PC-3 cells
T1 construct: PCR generated full length CTRwt and CTRΔESS cDNAs were cloned directionally into pcDNA3.1 mammalian expression vector; FLAG (N); expressed in transfected cells; host or cells: PC-31 / PC-3 cells stably expressing FLAG-CTRwt; ZO-1 is the cells' own
T1 sequence (P30988 25-474): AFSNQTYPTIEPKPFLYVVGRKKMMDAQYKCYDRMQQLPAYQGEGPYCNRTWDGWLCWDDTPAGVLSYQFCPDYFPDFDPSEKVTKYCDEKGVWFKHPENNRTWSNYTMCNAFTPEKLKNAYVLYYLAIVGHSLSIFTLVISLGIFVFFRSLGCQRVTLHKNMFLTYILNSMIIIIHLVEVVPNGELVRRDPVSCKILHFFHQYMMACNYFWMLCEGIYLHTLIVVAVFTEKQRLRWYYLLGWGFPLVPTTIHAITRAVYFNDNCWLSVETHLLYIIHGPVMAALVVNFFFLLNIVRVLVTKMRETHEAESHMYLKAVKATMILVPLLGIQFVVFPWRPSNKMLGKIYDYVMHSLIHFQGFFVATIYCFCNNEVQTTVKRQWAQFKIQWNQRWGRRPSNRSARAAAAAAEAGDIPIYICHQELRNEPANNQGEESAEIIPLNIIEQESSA
Procedure: (§1) Serum-starved PC-31-V, PC-31-CTRwt or PC-31-CTRΔESS cells (2×10^6 per 100 mm dish) were stimulated with or without 50 nM CT for 3 min, washed, and lysed in the IP buffer as previously described (von Zastrow et al., 1994). CTR in normalized lysate proteins was immunoprecipitated with anti-FLAG EZ-view beads (Sigma Chemical Co., St. Louis, Mo.), and eluted with FLAG peptide (600 μg/ml in PBS). CTR immunoprecipitates were processed for ZO-1 immunoblotting. To control for protein loading and transfer, the blots were stripped and reprobed with immunoprecipitating antibody.
(§2) PC-31 cells stably expressing either FLAG-CTRwt or FLAGCTRΔESS were treated with or without CT for 3 min. The analysis of FLAG-CTR IPs confirmed that only FLAG-CTRwt, but not FLAG-CTRΔESS, co-precipitated ZO-1 (FIG. 3B). […] The effect of multiple CT concentrations on CTR-ZO-1 co-precipitation was tested in PC-3 cells. […] However, co-precipitation of ZO-1 by CTRwt was strong in PC-3 cells stimulated with 10 nM CT, and was even stronger in the cells receiving 100 nM CT.
(§3) As shown above, CTR binds to ZO-1 through PDZ interaction (i.e. PDZ ligand on C-tail of CTR binds to the PDZ domain of ZO-1). To attenuate this binding, ZO-1 was saturated with a small C-terminal peptide of CTR sequence containing the PDZ-binding motif. Since ZO-1 is an intracellular membrane protein, the interfering peptide was delivered inside the plasma membrane. It has been shown that trans-activating transcriptional activator (TAT) protein (86-mer polypeptide) from HIV-1 enters mammalian cells when added to the surrounding media (Frankel et al., 1988; Green et al., 1989). Certain small regions of such proteins (10-16-mers) called protein transduction domains (PTDs), also efficiently traverse biological membranes (Elliott et al., 1997). Therefore, a fusion peptide Pep 1 was synthesized of TAT-peptide sequences of HIV virus and CTR-C(N-[…]-C (SEQ ID NO:2), CTR-C sequence underlined). The first experiment was to see if Pep I binds to ZO-1 in reversible fashion. For this, amino acid Y in Pep I was labeled with ^125I, and the binding with ZO-1 analyzed in the presence/absence of unlabeled Pep I (1000×; 20 μM). PC-3CTR-ZO-1-MYC cells were first incubated with unlabeled Pep I or control peptide (20 μM) for 5 min. The cells were then incubated with ^125I-pep I or C for 25 min. The cells were then washed in IP buffer, treated with DSP, and lysed. ZO-1 IPs were obtained, fractionated on SDS-PAGE, and autoradiographed. […] Next, whether Pep I competes with CTR for ZO-1 binding was tested. For this, PC-3-CTR-wt cells were treated with CT (50 nM) and or Pep I (50 μM) for 15 min. The CTR IPs were then immunoblotted and probed for ZO-1 immunoreactivity. […] Next, the biological impact of this phenomenon was examined by testing the effect of Pep I on CTR-stimulated invasion.

CTR-ZO-1 interaction [3] = biological target: T2, CTR-ZO-1 interaction (Homo sapiens, UniProt P30988, E471A/S472A/S473A); test: CTR-ZO-1 co-immunoprecipitation; type: cell-based; settings: all CT concentrations
T2 construct: PCR generated full length CTRwt and CTRΔESS cDNAs were cloned directionally into pcDNA3.1 mammalian expression vector; FLAG (N); expressed in transfected cells; host or cells: PC-31 / PC-3 cells stably expressing FLAG-CTRwt; ZO-1 is the cells' own
T2 sequence (P30988 with tags, fused parts or gaps): T1 sequence (P30988 25-474) with E447A, S448A, S449A
Procedure: as §1, §2, §3

Question: calcitonin [CT] was tested. Which “response to CT” value ([1]; aggressive cell lines) did it give?
Answer: responded extremely well

Question: What about the “response to CT” value ([1]; well-differentiated lines RT4 and OVCAR8) of the same substance?
Answer: responded poorly

Question: What about the TER ([1]; with CT, all these cell lines) of the same substance?
Answer: decreased TER

Question: And the “co-precipitation of ZO-1 by CTRwt” value (CTR-ZO-1 interaction [2]; 1 nM CT)?
Answer: barely detectable

Question: What about the “co-precipitation of ZO-1 by CTRwt” value (CTR-ZO-1 interaction [2]; 10 nM CT) of the same substance?
Answer: strong

Question: And the “co-precipitation of ZO-1 with CTRwt, activated versus dormant” value (CTR-ZO-1 interaction [2]; CT 50 nM)?
Answer: much more efficiently; also recorded: increased

Question: And the “co-precipitation of ZO-1 by CTRΔESS” value (CTR-ZO-1 interaction [3])?
Answer: not co-precipitated
